Numbered stars: 1 amine (or outer) side, 2 acyl side, 3 side chain; on linkers, the order of the positions; unused ones are H or OH. Square brackets hold non-standard residues; d marks the D form. Peptide text beside a SMILES is read from it. X1 = C[C@@H](O)[C@H](N[*:1])C(=O)NC(=O)[*:2]
Tests used:
Assay type in all cases: cell-based
Integrin alpha-V/beta-3 = Integrin alpha-V/beta-3 (Homo sapiens, UniProt P05106+P06756); assay: Antagonist activity at integrin alphaVbeta3 (unknown origin) expressed in HEK293 cells assessed as reduction in cell adhesion to fibrinogen after 2 hrs by MTT assay
Integrin alpha-V/beta-3, sequence (P05106 27-788 limits assumed): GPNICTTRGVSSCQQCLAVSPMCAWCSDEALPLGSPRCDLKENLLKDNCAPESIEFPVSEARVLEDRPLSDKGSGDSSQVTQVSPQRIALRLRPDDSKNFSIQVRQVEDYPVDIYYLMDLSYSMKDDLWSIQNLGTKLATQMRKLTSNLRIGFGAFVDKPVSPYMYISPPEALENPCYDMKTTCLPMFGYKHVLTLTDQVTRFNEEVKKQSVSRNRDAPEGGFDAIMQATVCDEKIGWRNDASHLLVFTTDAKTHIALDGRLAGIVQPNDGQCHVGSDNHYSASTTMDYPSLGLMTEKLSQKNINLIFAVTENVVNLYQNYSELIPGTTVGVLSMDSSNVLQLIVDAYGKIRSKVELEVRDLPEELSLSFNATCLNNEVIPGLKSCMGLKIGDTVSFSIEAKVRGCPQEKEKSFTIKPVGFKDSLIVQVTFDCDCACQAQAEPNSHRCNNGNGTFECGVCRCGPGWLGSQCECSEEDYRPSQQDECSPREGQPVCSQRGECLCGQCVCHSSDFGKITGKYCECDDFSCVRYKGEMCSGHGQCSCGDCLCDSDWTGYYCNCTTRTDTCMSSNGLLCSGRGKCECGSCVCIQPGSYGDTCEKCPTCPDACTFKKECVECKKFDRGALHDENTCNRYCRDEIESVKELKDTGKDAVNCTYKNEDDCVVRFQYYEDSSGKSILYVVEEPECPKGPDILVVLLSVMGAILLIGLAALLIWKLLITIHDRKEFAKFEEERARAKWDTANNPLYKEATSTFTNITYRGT
Integrin alpha-V/beta-3, sequence (P06756 31-889 limits assumed): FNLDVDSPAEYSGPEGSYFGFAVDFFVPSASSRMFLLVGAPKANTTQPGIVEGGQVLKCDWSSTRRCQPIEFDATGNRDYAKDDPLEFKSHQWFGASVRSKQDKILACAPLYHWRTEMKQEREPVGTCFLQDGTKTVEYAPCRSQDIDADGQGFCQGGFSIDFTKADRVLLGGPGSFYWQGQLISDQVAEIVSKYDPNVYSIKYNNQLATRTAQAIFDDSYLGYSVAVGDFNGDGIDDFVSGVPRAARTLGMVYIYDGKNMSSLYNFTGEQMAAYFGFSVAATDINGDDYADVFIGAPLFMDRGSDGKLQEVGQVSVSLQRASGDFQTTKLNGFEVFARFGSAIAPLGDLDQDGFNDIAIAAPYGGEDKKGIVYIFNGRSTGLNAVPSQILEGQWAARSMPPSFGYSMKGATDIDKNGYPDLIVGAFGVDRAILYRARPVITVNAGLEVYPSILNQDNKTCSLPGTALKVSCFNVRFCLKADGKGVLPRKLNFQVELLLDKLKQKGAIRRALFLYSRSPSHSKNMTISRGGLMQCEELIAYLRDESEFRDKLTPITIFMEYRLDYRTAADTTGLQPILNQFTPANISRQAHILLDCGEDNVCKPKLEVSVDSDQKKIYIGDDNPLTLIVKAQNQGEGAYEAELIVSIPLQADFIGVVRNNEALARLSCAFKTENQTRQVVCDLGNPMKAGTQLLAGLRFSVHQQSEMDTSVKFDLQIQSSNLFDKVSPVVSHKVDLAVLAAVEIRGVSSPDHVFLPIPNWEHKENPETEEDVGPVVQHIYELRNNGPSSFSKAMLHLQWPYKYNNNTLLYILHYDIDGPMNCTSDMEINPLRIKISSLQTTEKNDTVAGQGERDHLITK
Integrin alpha-V/beta-3, sequence (P06756 891-1048 limits assumed): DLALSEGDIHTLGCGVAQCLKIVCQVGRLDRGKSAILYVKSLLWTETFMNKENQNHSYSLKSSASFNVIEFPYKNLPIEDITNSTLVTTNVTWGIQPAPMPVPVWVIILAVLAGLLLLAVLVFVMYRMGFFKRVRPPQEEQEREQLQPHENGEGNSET

Integrin alpha-V/beta-5 = Integrin alpha-V/beta-5 (Homo sapiens, UniProt P06756+P18084); assay: Antagonist activity at integrin alphaVbeta5 (unknown origin) expressed in HT-29 cells assessed as reduction in cell adhesion to vitronectin after 2 hrs by MTT assay
Integrin alpha-V/beta-5, sequence (P06756 31-889 limits assumed): as the sequence (P06756 31-889 limits assumed) above
Integrin alpha-V/beta-5, sequence (P06756 891-1048 limits assumed): as the sequence (P06756 891-1048 limits assumed) above
Integrin alpha-V/beta-5, sequence (P18084 24-799 limits assumed): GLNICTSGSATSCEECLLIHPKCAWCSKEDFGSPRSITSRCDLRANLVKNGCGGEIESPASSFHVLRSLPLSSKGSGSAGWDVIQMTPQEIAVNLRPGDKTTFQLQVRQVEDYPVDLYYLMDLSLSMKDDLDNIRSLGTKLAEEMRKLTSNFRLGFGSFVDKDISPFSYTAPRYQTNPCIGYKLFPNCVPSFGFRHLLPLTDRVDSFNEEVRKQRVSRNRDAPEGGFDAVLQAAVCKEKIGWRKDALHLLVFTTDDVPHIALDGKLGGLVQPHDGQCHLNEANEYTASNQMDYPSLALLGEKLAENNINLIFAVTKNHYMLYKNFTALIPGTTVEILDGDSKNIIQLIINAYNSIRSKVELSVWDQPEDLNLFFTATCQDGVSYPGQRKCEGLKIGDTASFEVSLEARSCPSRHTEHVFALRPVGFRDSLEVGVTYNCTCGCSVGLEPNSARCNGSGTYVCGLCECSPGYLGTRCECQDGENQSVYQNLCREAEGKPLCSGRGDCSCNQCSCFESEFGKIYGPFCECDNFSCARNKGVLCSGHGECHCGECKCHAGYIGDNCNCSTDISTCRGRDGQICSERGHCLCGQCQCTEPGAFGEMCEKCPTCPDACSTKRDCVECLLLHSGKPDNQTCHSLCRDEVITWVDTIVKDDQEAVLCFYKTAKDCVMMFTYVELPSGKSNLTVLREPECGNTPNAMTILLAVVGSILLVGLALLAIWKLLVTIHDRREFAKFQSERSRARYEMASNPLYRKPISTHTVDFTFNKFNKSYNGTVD

[1] = molecular target: Integrin alpha-V/beta-3/alpha-V/beta-5 (Homo sapiens, UniProt P05106+P06756+P18084); assay: Antagonist activity at integrin alphaVbeta3alphaVbeta5 (unknown origin) expressed in SKOV3 cells assessed as reduction in cell adhesion to fibrinogen after 2 hrs by MTT assay
Integrin alpha-V/beta-3/alpha-V/beta-5, sequence (P05106 27-788 limits assumed): as the sequence (P05106 27-788 limits assumed) above
Integrin alpha-V/beta-3/alpha-V/beta-5, sequence (P06756 31-889 limits assumed): as the sequence (P06756 31-889 limits assumed) above
Integrin alpha-V/beta-3/alpha-V/beta-5, sequence (P06756 891-1048 limits assumed): as the sequence (P06756 891-1048 limits assumed) above
Integrin alpha-V/beta-3/alpha-V/beta-5, sequence (P18084 24-799 limits assumed): as the sequence (P18084 24-799 limits assumed) above

Homo sapiens [2] = species on record: Homo sapiens; assay: Selectivity ratio of IC50 for integrin alphaVbeta5 (unknown origin) expressed in HT-29 cells to IC50 for integrin alphaVbeta3alphaVbeta5 (unknown origin) expressed in SKOV3 cells
Homo sapiens [3] = species on record: Homo sapiens; assay: Selectivity ratio of IC50 for integrin alphaVbeta5 (unknown origin) expressed in HT-29 cells to IC50 for integrin alphaVbeta3 (unknown origin) expressed in HEK293 cells

Row | Compound | IC50 (Integrin alpha-V/beta-3) [µM] | IC50 (Integrin alpha-V/beta-5) [µM] | IC50 [1] [µM] | Ratio IC50 (Homo sapiens [2]) | Ratio IC50 (Homo sapiens [3])
1 | H-GGGGGGGRGDLPETGGS-OH | 171 | 2950 | 102 |  | 
2 | CC(C)C[C@@H]1NC(=O)[C@H](CC(=O)O)NC(=O)CNC(=O)[C@H](CCCNC(=N)N)NC(=O)CNC(=O)CNC(=O)CNC(=O)CNC(=O)CNC(=O)CNC(=O)CNC(=O)NC(=O)[C@H]([C@@H](C)O)NC(=O)[C@H](CCC(=O)O)NC(=O)[C@@H]2CCCN2C1=O (cyclo(RGDLPE[X1]GGGGGGG)) | 7.2 | 522 | 19 |  | 
3 | H-RGDRGD-OH | 619 | 546 | 753 |  | 
4 | H-GRGDRGDRGDLPETGGS-OH | 152 | 25 | 74 |  | 
5 | CC(C)C[C@@H]1NC(=O)[C@H](CC(=O)O)NC(=O)CNC(=O)[C@H](CCCNC(=N)N)NC(=O)[C@H](CC(=O)O)NC(=O)CNC(=O)[C@H](CCCNC(=N)N)NC(=O)[C@H](CC(=O)O)NC(=O)CNC(=O)[C@H](CCCNC(=N)N)NC(=O)CNC(=O)[C@H]([C@@H](C)O)NC(=O)[C@H](CCC(=O)O)NC(=O)[C@@H]2CCCN2C1=O (cyclo(RGDLPETGRGDRGD)) | 257 | 380 | 136 |  | 
6 | CC(C)C[C@@H]1NC(=O)[C@H](CC(=O)O)NC(=O)CNC(=O)[C@H](CCCNC(=N)N)NC(=O)[C@H](CC(=O)O)NC(=O)CNC(=O)[C@H](CCCNC(=N)N)NC(=O)CNC(=O)CNC(=O)CNC(=O)CNC(=O)[C@H]([C@@H](C)O)NC(=O)[C@H](CCC(=O)O)NC(=O)[C@@H]2CCCN2C1=O (cyclo(RGDLPETGGGGRGD)) | 48.8 | 26 | 26 |  | 
7 | H-GGGGRGDRGDLPETGGS-OH | 33 | 1730 | 4 | > 400 | > 50

Reference: ChEMBL document CHEMBL4014304, “New potent and selective αvβ3 integrin ligands: Macrocyclic peptides containing RGD motif synthesized by sortase A-mediated ligation” (Bioorg Med Chem Lett, 2017)
